Converted amounts (≈) assume the structure as drawn. Like-named read-outs stand apart in the source and are kept apart here.

In experiment [1] the test system is ASAU001 (laboratory strain of S. aureus, ATCC29213). As to the kind of experiment: MIC broth microdilution, ASAU001. To be noted: Staphylococcus aureus, ATCC29213, read-out: MIC ASAU001. The class given is cell-based. The method, boiled down:
(§1)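 Strains were grown overnight at 35° C. on Mueller-Hinton agar, suspended to 0.5 McFarland and diluted to a final 3×10^5–7×10^5 CFU/mL. They were then exposed to 2-fold serial drug dilutions in cation-adjusted Mueller-Hinton broth and incubated 18-24 hours at 35° C.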

For experiment [2], the system named is APAE001 (ATCC27853). The experiment in a line: MIC broth microdilution, APAE001. The class given is cell-based, P. aeruginosa. To be noted: Pseudomonas aeruginosa, ATCC27853, read-out: MIC APAE001, APAE001 (ATCC27853). The method, boiled down: as §1
Experiment [3] concerns AABA1060 (clinical isolate of Acinetobacter baumannii). As to the kind of experiment: MIC broth microdilution, AABA1060. To be noted: Acinetobacter baumannii, read-out: MIC AABA1060. The class given is cell-based. In outline:
as §1

Experiment [4] has as its system AECO001 (ATCC25922). The experiment in a line: MIC broth microdilution, AECO001. The class given is cell-based, E. coli. As to conditions: Escherichia coli. In outline: as §1
Background: Broth dilution looks for growth in wells or tubes with falling amounts of substance.

The test system of experiment [5] is APAE006 in the presence of 8 micrograms per milliliter of polymyxin B nonapeptide. The class given is cell-based, P. aeruginosa. As to conditions: APAE006 with 8 micrograms per milliliter polymyxin B nonapeptide. The method, boiled down: (§2)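 CLSI broth microdilution in cation-adjusted Mueller-Hinton broth, final inoculum 3×10^5–7×10^5 CFU/mL, 2-fold drug dilutions, 18-24 hours at 35° C. in ambient air. APAE006 is an efflux-pump-inactivated P. aeruginosa strain. Assay performance monitored with QC strains and levofloxacin.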

Experiment [6] deals with AECO063 (ATCC25922 bearing an acrAB mutation). As to the kind of experiment: microbe, parasite or virus in culture. The class given is cell-based, E. coli. To be noted: Escherichia coli, ATCC25922, read-out: MIC AECO063. The method, boiled down: as §1
The subject of experiment [7] is APAE006 (strain of P. aeruginosa in which all efflux pumps are inactivated). As to the kind of experiment: microbe, parasite or virus in culture. The class given is cell-based. As to conditions: Pseudomonas aeruginosa, read-out: MIC APAE006, APAE006, all efflux pumps inactivated. The method, boiled down:
as §2

[8] abbreviates: ATCC25922, read-out: MIC AECO001.
[9] abbreviates: ATCC25922, read-out: MIC AECO001 HSA AGP.

Take `CC(C)(O)[C@H](NC(=O)c1ccc(C#C/C=C/c2ccc(F)cc2)cc1)C(=O)NO` [Example 106-7]: the MIC in experiment [1] is 16 to 64 µg/mL (≈ 40.4 to 161 µM); in experiment [2] it was 2 to 16 µg/mL (≈ 5.05 to 40.4 µM); in experiment [3] it was 2 to 16 µg/mL (≈ 5.05 to 40.4 µM); in experiment [4] (setting [8]) it was less than 2 µg/mL; in experiment [4] (setting [9]), 2 to 16 µg/mL (≈ 5.05 to 40.4 µM); in experiment [6], less than 2 µg/mL. In addition, the MIC in experiment [7] is less than 2 µg/mL. The “MIC APAE006 + PMBN” value in experiment [5] is listed as “A (MIC's of 2.0 μg/mL or less = A)”.

As to `CC(C)(O)[C@H](NC(=O)c1ccc(C#C/C=C/C2CC2)cc1)C(=O)NO` [Example 107-1, 4-((E)-4-Cyclopropyl-but-3-en-1-ynyl)-N—((S)-2-hydroxy-1-hydroxycarbamoyl-2-methyl-propyl)-benzamide], the MIC was 16 to 64 µg/mL (≈ 46.7 to 187 µM) in experiment [1]; less than 2 µg/mL in experiment [2]; 2 to 16 µg/mL (≈ 5.84 to 46.7 µM) in experiment [3]; less than 2 µg/mL in experiment [4] (setting [8]); 2 to 16 µg/mL (≈ 5.84 to 46.7 µM) in experiment [4] (setting [9]); less than 2 µg/mL in experiment [6]. The MIC in experiment [7] was less than 2 µg/mL. For the same compound, the “MIC APAE006 + PMBN” value in experiment [5] is given as “A (MIC's of 2.0 μg/mL or less = A)”.

`C[C@@H](N)[C@H](NC(=O)c1ccc(C#C/C=C/C2CC2)cc1)C(=O)NO` [Example 107-2]: the MIC in experiment [1] is 2 to 16 µg/mL (≈ 6.11 to 48.9 µM); in experiment [2], less than 2 µg/mL; in experiment [3] it was less than 2 µg/mL; in experiment [4] (setting [8]), less than 2 µg/mL; in experiment [4] (setting [9]) it was 2 to 16 µg/mL (≈ 6.11 to 48.9 µM); in experiment [6], less than 2 µg/mL. In addition, the MIC in experiment [7] is less than 2 µg/mL. For the same compound, the “MIC APAE006 + PMBN” value in experiment [5] is reported as “A (MIC's of 2.0 μg/mL or less = A)”.

Consider `C[C@@H](O)[C@H](NC(=O)c1ccc(C#C/C=C/C2CC2)cc1)C(=O)NO` [Example 107-3], for which the MIC was 16 to 64 µg/mL (≈ 48.7 to 195 µM) in experiment [1]; less than 2 µg/mL in experiment [2]; 2 to 16 µg/mL (≈ 6.09 to 48.7 µM) in experiment [3]; less than 2 µg/mL in experiment [4] (setting [8]); 2 to 16 µg/mL (≈ 6.09 to 48.7 µM) in experiment [4] (setting [9]); less than 2 µg/mL in experiment [6]. For the same compound, the MIC in experiment [7] was less than 2 µg/mL. The “MIC APAE006 + PMBN” value in experiment [5] is given as “A (MIC's of 2.0 μg/mL or less = A)”.

As for `CC(C)(N)[C@H](NC(=O)c1ccc(C#C/C=C/C2CC2)cc1)C(=O)NO` [Example 107-4], the MIC in experiment [1] is 2 to 16 µg/mL (≈ 5.86 to 46.9 µM); in experiment [2] it was less than 2 µg/mL; in experiment [3] it was less than 2 µg/mL; in experiment [4] (setting [8]), less than 2 µg/mL; in experiment [4] (setting [9]), less than 2 µg/mL; in experiment [6] it was less than 2 µg/mL. For the same compound, the MIC in experiment [7] was less than 2 µg/mL. Also, the “MIC APAE006 + PMBN” value in experiment [5] is given as “A (MIC's of 2.0 μg/mL or less = A)”.

On to `CC(C)/C=C/C#Cc1ccc(C(=O)N[C@H](C(=O)NO)[C@@H](C)N)cc1` [Example 107-5], for which the MIC in experiment [1] is 2 to 16 µg/mL (≈ 6.07 to 48.6 µM); in experiment [2], 2 to 16 µg/mL (≈ 6.07 to 48.6 µM); in experiment [3] it was less than 2 µg/mL; in experiment [4] (setting [8]), less than 2 µg/mL; in experiment [4] (setting [9]), 2 to 16 µg/mL (≈ 6.07 to 48.6 µM); in experiment [6], less than 2 µg/mL. The MIC in experiment [7] is less than 2 µg/mL. In addition, the “MIC APAE006 + PMBN” value in experiment [5] is on record as “A (MIC's of 2.0 μg/mL or less = A)”.

As to `CC(C)/C=C/C#Cc1ccc(C(=O)N[C@H](C(=O)NO)C(C)(C)N)cc1` [Example 107-6], the MIC in experiment [1] was 16 to 64 µg/mL (≈ 46.6 to 186 µM); in experiment [2], 2 to 16 µg/mL (≈ 5.82 to 46.6 µM); in experiment [3], less than 2 µg/mL; in experiment [4] (setting [8]), less than 2 µg/mL; in experiment [4] (setting [9]), 2 to 16 µg/mL (≈ 5.82 to 46.6 µM); in experiment [6], less than 2 µg/mL. Moreover, the MIC in experiment [7] was less than 2 µg/mL. Besides, the “MIC APAE006 + PMBN” value in experiment [5] is “A (MIC's of 2.0 μg/mL or less = A)”.

Regarding `CC(C)(N)[C@H](NC(=O)c1ccc(/C=C/C#Cc2ccc(CNC3CC3)cc2)cc1)C(=O)NO` [Example 113-6], the MIC in experiment [1] was 16 to 64 µg/mL (≈ 35.8 to 143 µM); in experiment [2], less than 2 µg/mL; in experiment [3], less than 2 µg/mL; in experiment [4] (setting [8]) it was less than 2 µg/mL; in experiment [4] (setting [9]) it was less than 2 µg/mL; in experiment [6] it was less than 2 µg/mL. The MIC in experiment [7] is less than 2 µg/mL. Besides, the “MIC APAE006 + PMBN” value in experiment [5] is recorded as “A (MIC's of 2.0 μg/mL or less = A)”.

For the compound `C[C@@H](O)[C@H](NC(=O)c1ccc(/C=C/C#Cc2ccc(F)cc2)cc1)C(=O)NO` [Example 114-11], the MIC in experiment [1] is 16 to 64 µg/mL (≈ 41.8 to 167 µM); in experiment [2] it was 16 to 64 µg/mL (≈ 41.8 to 167 µM); in experiment [3], 2 to 16 µg/mL (≈ 5.23 to 41.8 µM); in experiment [4] (setting [8]), less than 2 µg/mL; in experiment [4] (setting [9]), 16 to 64 µg/mL (≈ 41.8 to 167 µM); in experiment [6] it was less than 2 µg/mL. For the same compound, the MIC in experiment [7] was less than 2 µg/mL. For the same compound, the “MIC APAE006 + PMBN” value in experiment [5] is “A (MIC's of 2.0 μg/mL or less = A)”.

The values above are taken from patent US9617256B2 (priority 2007, dated 2017).
